Test results reported in article PMC12825302, “Structural plasticity enables broad cAn binding and dual activation of CRISPR-associated ribonuclease Cdn1” (Nucleic Acids Research, 2026).

Legend:
[1] = molecular target: T1, Cdn1 (Psychrobacter lutiphocae, UniProt A0ACN4YG66); test: ITC; type: binding
T1 construct: codon-optimized gene in pET-28a(+), E. coli BL21(DE3), Ni-NTA and SEC; homodimer (SEC-MALS); N-terminal CARF and C-terminal PD-(D/E)xK nuclease domain
T1 sequence (A0ACN4YG66 1-399): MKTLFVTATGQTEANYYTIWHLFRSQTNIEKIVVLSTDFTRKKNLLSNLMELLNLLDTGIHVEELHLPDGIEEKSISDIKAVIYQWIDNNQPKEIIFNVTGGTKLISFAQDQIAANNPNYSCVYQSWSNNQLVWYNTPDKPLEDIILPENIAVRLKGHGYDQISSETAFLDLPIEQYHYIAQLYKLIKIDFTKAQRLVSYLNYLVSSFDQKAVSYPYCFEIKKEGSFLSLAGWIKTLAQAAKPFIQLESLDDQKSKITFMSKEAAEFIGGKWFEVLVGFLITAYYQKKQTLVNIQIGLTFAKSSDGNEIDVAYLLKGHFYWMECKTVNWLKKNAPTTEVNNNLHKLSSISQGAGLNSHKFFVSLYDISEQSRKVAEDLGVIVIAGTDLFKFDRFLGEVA

[2] = molecular target: T1, Cdn1; test: FAM-labeled ssRNA (RNA1) cleavage, urea-PAGE; type: biochemical
[3] = molecular target: Cdn1 (CRISPR-associated dual-cOAs-activated ribonuclease 1) (Psychrobacter lutiphocae); test: SEC; size-exclusion chromatography during purification (HiLoad 16/600 Superdex 200 prep grade); no cyclic oligoadenylate added
[4] = molecular target: Cdn1 (CRISPR-associated dual-cOAs-activated ribonuclease 1) (Psychrobacter lutiphocae); test: SEC-MALS; 10 mg/ml Cdn1 in 50 mM NaH2PO4/Na2HPO4, pH 7.4, 300 mM NaCl; TSKgel G3000SWXL, 0.5 ml/min, 8°C; no cyclic oligoadenylate added

Row | Compound | Kd [1] [nM] | EC50 [2] [nM] | stoichiometry N [3] | stoichiometry N [4]
1 | Nc1ncnc2c1ncn2[C@@H]1O[C@@H]2COP(=O)(O)O[C@H]3[C@@H](O)[C@H](n4cnc5c(N)ncnc54)O[C@@H]3COP(=O)(O)O[C@H]3[C@@H](O)[C@H](n4cnc5c(N)ncnc54)O[C@@H]3COP(=O)(O)O[C@H]2[C@H]1O [cA3] | 23 ± 8.7 | – | – | –
2 | Nc1ncnc2c1ncn2[C@@H]1O[C@@H]2COP(=O)(O)O[C@H]3[C@@H](O)[C@H](n4cnc5c(N)ncnc54)O[C@@H]3COP(=O)(O)O[C@H]3[C@@H](O)[C@H](n4cnc5c(N)ncnc54)O[C@@H]3COP(=O)(O)O[C@H]3[C@@H](O)[C@H](n4cnc5c(N)ncnc54)O[C@@H]3COP(=O)(O)O[C@H]2[C@H]1O [cA4] | 54.6 ± 25.1 | 2.17 ± 0.68 | – | –
3 | Nc1ncnc2c1ncn2[C@@H]1O[C@@H]2COP(=O)(O)O[C@H]3[C@@H](O)[C@H](n4cnc5c(N)ncnc54)O[C@@H]3COP(=O)(O)O[C@H]3[C@@H](O)[C@H](n4cnc5c(N)ncnc54)O[C@@H]3COP(=O)(O)O[C@H]3[C@@H](O)[C@H](n4cnc5c(N)ncnc54)O[C@@H]3COP(=O)(O)O[C@H]3[C@@H](O)[C@H](n4cnc5c(N)ncnc54)O[C@@H]3COP(=O)(O)O[C@H]3[C@@H](O)[C@H](n4cnc5c(N)ncnc54)O[C@@H]3COP(=O)(O)O[C@H]2[C@H]1O [cA6] | 740 ± 205 | 670 ± 98.8 | – | –
4 | Cdn1 (CRISPR-associated dual-cOAs-activated ribonuclease 1) (enzyme) | – | – | 2 | 2
